Like-named read-outs stand apart in the source and are kept apart here.
Assays:
[1] = target: CDK1-CYCLIN B (Homo sapiens, UniProt P06493); test: CDK protein kinase inhibition by ADP-Glo assay, CDK1-CYCLIN B; assay type: biochemical; details: for IC50: read-out: CDK1-CYCLINB, IC50; for CDK2 Fold selectivity, CDK1: CDK2 versus CDK1; for CDK2 Fold selectivity against CDK1: fold selectivity for CDK2 over CDK1, recombinant CDK kinases
In short: (§1)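 Luminescent ADP-Glo readout quantified ADP produced as peptide phosphorylation by each kinase/cyclin pair. Reactions ran at 22° C in HEPES pH 7.5 buffer (DTT, BSA, Triton X-100, orthovanadate, β-glycerophosphate, 5 mM Mg2+) with ATP at 1000 μM and 1% DMSO.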

[2] = target: CDK2-CYCLIN E1 (Homo sapiens, UniProt P24941); test: CDK protein kinase inhibition by ADP-Glo assay, CDK2-CYCLIN E1; assay type: biochemical; details: read-out: CDK2-CYCLINE, IC50
In short: as §1

[3] = target: CDK4-CYCLIN D1 (Homo sapiens, UniProt P11802); test: CDK protein kinase inhibition by ADP-Glo assay, CDK4-CYCLIN D1; assay type: biochemical; details: for IC50: read-out: CDK4-CYCLIND1, IC50; for CDK2 Fold selectivity, CDK4: CDK2 versus CDK4; for CDK2 Fold selectivity against CDK4: fold selectivity for CDK2 over CDK4, recombinant CDK kinases
In short: as §1

[4] = target: CDK6-CYCLIN D3 (Homo sapiens, UniProt Q00534); test: CDK protein kinase inhibition by ADP-Glo assay, CDK6-CYCLIN D3; assay type: biochemical; details: for IC50: read-out: CDK6-CYCLIND3, IC50; for CDK2 Fold selectivity, CDK6: CDK2 versus CDK6; for CDK2 Fold selectivity against CDK6: fold selectivity for CDK2 over CDK6, recombinant CDK kinases
In short: as §1

[5] = target: CDK9-CYCLIN T1 (Homo sapiens, UniProt P50750); test: CDK protein kinase inhibition by ADP-Glo assay, CDK9-CYCLIN T1; assay type: biochemical; details: for CDK2 Fold selectivity, CDK9: CDK2 versus CDK9; for CDK2 Fold selectivity against CDK9: fold selectivity for CDK2 over CDK9, recombinant CDK kinases
In short: as §1

[6] = system: Phospho-Rb (Ser807/811) in OVCAR3 cells; test: Phospho-Rb expression inhibition in OVCAR3 cells quantified by In Cell Western; assay type: cell-based; details: Homo sapiens, OVCAR-3, 24 hours, read-out: OVCAR-3 pRb IC50
In short: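 In-cell western: after 24 h compound exposure at 37° C, fixed OVCAR3 cells co-stained for pRb Ser807/811 (800 nm channel) and total Rb (680 nm channel), imaged by LI-COR Odyssey.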

[7] = system: CCNE1-amplified OVCAR3 cells; test: Cell growth inhibition of CCNE1-amplified OVCAR3 cells (CellTiter-Glo); assay type: cell-based; details: Homo sapiens, OVCAR-3, 144 h, 6 days
In short: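 Growth read-out was CellTiter-Glo luminescence, taken after 10 min at room temperature at the end of a 6-day compound exposure at 37 °C. Compounds were diluted from DMSO stocks across various concentrations.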

[8] = system: CCNE1-normal SKOV3 cells; test: Cell growth inhibition of CCNE1-normal SKOV3 cells (CellTiter-Glo); assay type: cell-based; details: Homo sapiens, SK-OV-3, 144 h, 6 days
In short: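 Growth was measured by CellTiter-Glo luminescence after 6 days' compound exposure at 37 °C. Cells were plated one day before dosing at 1000 per well in medium with 10% FBS, and compounds were diluted from DMSO stocks.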

[9] = Table 35, recombinant CDK kinase
[10] = Table 35, recombinant CDK kinase, read-out: CDK9-CYCLINT1, IC50
[11] = Table 37, recombinant CDK kinase

CDK4-CYCLIN D1, sequence (P11802 whole entry): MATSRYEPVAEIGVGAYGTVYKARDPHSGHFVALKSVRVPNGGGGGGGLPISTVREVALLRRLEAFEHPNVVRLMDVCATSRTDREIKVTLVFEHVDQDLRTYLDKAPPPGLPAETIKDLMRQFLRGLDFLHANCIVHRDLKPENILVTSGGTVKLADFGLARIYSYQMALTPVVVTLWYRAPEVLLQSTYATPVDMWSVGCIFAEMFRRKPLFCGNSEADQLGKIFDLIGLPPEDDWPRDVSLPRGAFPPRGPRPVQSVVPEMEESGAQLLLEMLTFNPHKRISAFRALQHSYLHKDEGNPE
CDK4-CYCLIN D1, sequence (P24385 whole entry partner): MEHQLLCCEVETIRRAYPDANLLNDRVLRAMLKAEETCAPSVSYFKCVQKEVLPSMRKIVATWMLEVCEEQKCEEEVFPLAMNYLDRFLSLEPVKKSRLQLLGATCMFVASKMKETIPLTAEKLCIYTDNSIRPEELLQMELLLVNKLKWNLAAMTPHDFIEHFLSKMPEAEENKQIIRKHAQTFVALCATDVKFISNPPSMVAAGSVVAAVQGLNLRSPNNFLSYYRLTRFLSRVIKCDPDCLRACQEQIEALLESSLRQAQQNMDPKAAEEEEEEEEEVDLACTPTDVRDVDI
CDK1-CYCLIN B, sequence (P06493 whole entry): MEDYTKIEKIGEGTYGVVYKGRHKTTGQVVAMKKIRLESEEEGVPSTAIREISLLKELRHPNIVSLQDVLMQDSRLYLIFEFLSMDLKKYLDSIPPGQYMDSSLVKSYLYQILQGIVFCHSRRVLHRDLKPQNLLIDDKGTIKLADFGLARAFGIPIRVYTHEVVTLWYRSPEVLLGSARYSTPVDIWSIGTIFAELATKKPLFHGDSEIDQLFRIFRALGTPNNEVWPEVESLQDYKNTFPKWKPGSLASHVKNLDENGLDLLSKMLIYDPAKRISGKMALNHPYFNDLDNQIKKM
CDK1-CYCLIN B, sequence (P14635 whole entry partner): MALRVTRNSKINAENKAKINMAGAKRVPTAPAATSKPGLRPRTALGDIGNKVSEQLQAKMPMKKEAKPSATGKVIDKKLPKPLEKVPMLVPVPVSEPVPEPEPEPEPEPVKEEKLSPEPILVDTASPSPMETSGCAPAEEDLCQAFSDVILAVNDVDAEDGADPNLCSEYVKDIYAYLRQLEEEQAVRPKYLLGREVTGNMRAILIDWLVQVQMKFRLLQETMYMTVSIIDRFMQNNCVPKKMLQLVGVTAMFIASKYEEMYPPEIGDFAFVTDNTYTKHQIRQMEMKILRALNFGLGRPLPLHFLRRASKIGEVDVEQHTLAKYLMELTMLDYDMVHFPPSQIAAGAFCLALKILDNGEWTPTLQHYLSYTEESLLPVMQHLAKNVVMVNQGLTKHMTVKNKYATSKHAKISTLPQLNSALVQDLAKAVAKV
CDK9-CYCLIN T1, sequence (P50750 whole entry): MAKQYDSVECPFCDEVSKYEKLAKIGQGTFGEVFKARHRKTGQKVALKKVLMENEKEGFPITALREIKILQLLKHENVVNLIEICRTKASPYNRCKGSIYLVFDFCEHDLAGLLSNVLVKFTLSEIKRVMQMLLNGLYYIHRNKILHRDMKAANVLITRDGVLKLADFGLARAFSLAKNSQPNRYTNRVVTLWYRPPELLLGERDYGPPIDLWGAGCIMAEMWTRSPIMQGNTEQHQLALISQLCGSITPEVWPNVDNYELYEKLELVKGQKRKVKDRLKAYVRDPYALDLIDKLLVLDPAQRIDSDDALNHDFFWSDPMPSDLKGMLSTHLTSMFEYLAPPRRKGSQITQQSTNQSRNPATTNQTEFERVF
CDK9-CYCLIN T1, sequence (O60563 whole entry partner): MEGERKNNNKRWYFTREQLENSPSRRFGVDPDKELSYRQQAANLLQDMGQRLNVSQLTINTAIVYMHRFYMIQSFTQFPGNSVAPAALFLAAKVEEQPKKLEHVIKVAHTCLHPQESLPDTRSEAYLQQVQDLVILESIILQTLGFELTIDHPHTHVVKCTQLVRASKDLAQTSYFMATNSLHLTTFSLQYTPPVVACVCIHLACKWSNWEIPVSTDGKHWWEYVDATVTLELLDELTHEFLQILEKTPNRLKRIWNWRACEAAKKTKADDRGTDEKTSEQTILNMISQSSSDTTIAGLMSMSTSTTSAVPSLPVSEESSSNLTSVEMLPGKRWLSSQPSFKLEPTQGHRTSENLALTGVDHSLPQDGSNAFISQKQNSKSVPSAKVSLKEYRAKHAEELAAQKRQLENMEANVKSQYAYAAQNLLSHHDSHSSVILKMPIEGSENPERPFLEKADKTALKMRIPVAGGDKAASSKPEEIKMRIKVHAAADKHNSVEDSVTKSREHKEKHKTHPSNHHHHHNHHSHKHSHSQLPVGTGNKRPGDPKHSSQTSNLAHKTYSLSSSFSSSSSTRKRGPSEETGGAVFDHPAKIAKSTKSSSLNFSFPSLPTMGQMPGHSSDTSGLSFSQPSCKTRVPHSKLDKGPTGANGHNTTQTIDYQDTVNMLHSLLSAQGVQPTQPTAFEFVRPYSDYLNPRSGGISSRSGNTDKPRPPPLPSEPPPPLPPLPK
CDK6-CYCLIN D3, sequence (Q00534 whole entry): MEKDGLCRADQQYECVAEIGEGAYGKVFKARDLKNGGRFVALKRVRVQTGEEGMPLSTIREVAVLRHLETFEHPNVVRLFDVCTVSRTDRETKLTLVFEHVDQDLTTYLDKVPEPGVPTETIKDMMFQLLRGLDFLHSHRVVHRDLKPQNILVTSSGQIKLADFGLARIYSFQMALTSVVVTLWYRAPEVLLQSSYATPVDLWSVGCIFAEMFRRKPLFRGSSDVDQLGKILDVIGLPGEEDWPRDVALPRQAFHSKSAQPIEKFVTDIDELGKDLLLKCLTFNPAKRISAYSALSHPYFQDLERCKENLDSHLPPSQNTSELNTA
CDK6-CYCLIN D3, sequence (P30281 whole entry partner): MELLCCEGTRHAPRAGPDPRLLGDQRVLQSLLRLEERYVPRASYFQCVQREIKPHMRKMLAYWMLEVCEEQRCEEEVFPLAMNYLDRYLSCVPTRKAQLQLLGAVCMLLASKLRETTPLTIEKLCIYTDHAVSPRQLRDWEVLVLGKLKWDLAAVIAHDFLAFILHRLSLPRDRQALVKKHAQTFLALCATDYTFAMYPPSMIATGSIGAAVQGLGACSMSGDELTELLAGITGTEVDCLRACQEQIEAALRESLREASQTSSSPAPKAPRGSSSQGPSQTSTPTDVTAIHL

IC50 [6]	IC50 [7]	IC50 [1, 9]	CDK2 Fold selectivity against CDK1 ([1]; Table 36)	IC50 [2, 9]	IC50 [3, 9]	CDK2 Fold selectivity against CDK4 ([3]; Table 36)	IC50 [4, 9]	CDK2 Fold selectivity against CDK6 ([4]; Table 36)	IC50 [5, 10]	CDK2 Fold selectivity against CDK9 ([5]; Table 36)	SMILES	IC50 [8]	other results
0.01 to 0.05 µM	0.05 to 0.25 µM	–	–	–	–	–	–	–	–	–	[2H]C1([2H])CC[C@H](C)NC(=O)O[C@@H]2CC[C@@H](C2)c2cc([nH]n2)Nc2ccnc(c2)O1 [Compound 173, (1^1S,1^3R,9S,Z)-9-methyl-2^1H-5,12-dioxa-3,10-diaza-4(4,2)-pyridina-2(3,5)-pyrazola-1(1,3)-cyclopentanacyclododecaphan-11-one-6,6-d2]	> 1.25 µM	IC50 ([1]; ADP-Glo, 1000 μM ATP, Table 27): 0.1 to 0.5 µM; CDK2 Fold selectivity, CDK1 ([1]; Table 28): E (E, <20); IC50 ([2]; ADP-Glo, 1000 μM ATP, Table 27): 0.01 to 0.05 µM; IC50 ([3]; ADP-Glo, 1000 μM ATP, Table 27): 0.1 to 0.5 µM; CDK2 Fold selectivity, CDK4 ([3]; Table 28): D (D, >20 and ≤50); IC50 ([4]; ADP-Glo, 1000 μM ATP, Table 27): > 0.5 µM; CDK2 Fold selectivity, CDK6 ([4]; Table 28): D (D, >20 and ≤50); IC50 ([5]; ADP-Glo, 1000 μM ATP, Table 27, read-out: CDK9-CYCLINT1 IC50): > 0.5 µM; CDK2 Fold selectivity, CDK9 ([5]; Table 28): D (D, >20 and ≤50)
0.01 to 0.05 µM	0.01 to 0.05 µM	–	–	–	–	–	–	–	–	–	C[C@@H]1NC(=O)O[C@@H]2CC[C@@H](C2)c2cc([nH]n2)Nc2ccnc(c2)OCCC1(F)F [Compound 181, (1^1S,1^3R,9S,Z)-8,8-difluoro-9-methyl-2^1H-5,12-dioxa-3,10-diaza-4(4,2)-pyridina-2(3,5)-pyrazola-1(1,3)-cyclopentanacyclododecaphan-11-one]	0.25 to 1.25 µM	IC50 ([1]; ADP-Glo, 1000 μM ATP, Table 29): 0.1 to 0.5 µM; CDK2 Fold selectivity, CDK1 ([1]; Table 30): D (D, >20 and ≤50); IC50 ([2]; ADP-Glo, 1000 μM ATP, Table 29): ≤ 0.01 µM; IC50 ([3]; ADP-Glo, 1000 μM ATP, Table 29): > 0.5 µM; CDK2 Fold selectivity, CDK4 ([3]; Table 30): C (C, >50 and ≤100); IC50 ([4]; ADP-Glo, 1000 μM ATP, Table 29): > 0.5 µM; CDK2 Fold selectivity, CDK6 ([4]; Table 30): C (C, >50 and ≤100); IC50 ([5]; ADP-Glo, 1000 μM ATP, Table 29, read-out: CDK9-CYCLINT1, IC50): 0.1 to 0.5 µM; CDK2 Fold selectivity, CDK9 ([5]; Table 30): D (D, >20 and ≤50)
0.01 to 0.05 µM	0.05 to 0.25 µM	–	–	–	–	–	–	–	–	–	C[C@H]1CCCOc2cc(ccn2)Nc2[nH]nc(c2F)[C@H]2CC[C@H](C2)OC(=O)N1 [Compound 183, (1^1S,1^3R,9S,E)-2^4-fluoro-9-methyl-2^1H-5,12-dioxa-3,10-diaza-4(4,2)-pyridina-2(3,5)-pyrazola-1(1,3)-cyclopentanacyclododecaphan-11-one]	> 1.25 µM	IC50 ([1]; ADP-Glo, 1000 μM ATP, Table 33): > 0.5 µM; CDK2 Fold selectivity against CDK1 ([1]; Table 34): D (D, >20 and ≤50); IC50 ([2]; ADP-Glo, 1000 μM ATP, Table 33): 0.01 to 0.05 µM; IC50 ([3]; ADP-Glo, 1000 μM ATP, Table 33): > 0.5 µM; CDK2 Fold selectivity against CDK4 ([3]; Table 34): C (C, >50 and ≤100); IC50 ([4]; ADP-Glo, 1000 μM ATP, Table 33): > 0.5 µM; CDK2 Fold selectivity against CDK6 ([4]; Table 34): C (C, >50 and ≤100); IC50 ([5]; ADP-Glo, 1000 μM ATP, Table 33, read-out: CDK9-CYCLINT1, IC50): > 0.5 µM; CDK2 Fold selectivity against CDK9 ([5]; Table 34): B (B, >100 and ≤500)
0.002 to 0.01 µM	0.01 to 0.05 µM	0.05 to 0.1 µM	E (E, <20)	≤ 0.01 µM	0.1 to 0.5 µM	C (C, >50 and ≤100)	0.1 to 0.5 µM	C (C, >50 and ≤100)	0.1 to 0.5 µM	C (C, >50 and ≤100)	C[C@H]1CC(F)(F)COc2cc(ccn2)Nc2cc(n[nH]2)[C@H]2CC[C@H](C2)OC(=O)N1 [Compound 223, (1^1S,1^3R,9S,Z)-7,7-difluoro-9-methyl-2^1H-5,12-dioxa-3,10-diaza-4(4,2)-pyridina-2(3,5)-pyrazola-1(1,3)-cyclopentanacyclododecaphan-11-one]	0.25 to 1.25 µM	–
0.002 to 0.01 µM	0.01 to 0.05 µM	0.01 to 0.05 µM	E (E, <20)	≤ 0.01 µM	0.1 to 0.5 µM	C (C, >50 and ≤100)	0.1 to 0.5 µM	C (C, >50 and ≤100)	> 0.5 µM	B (B, >100 and ≤500)	C[C@H]1CCCOc2cc(ccn2)Nc2cc(n[nH]2)[C@H]2C[C@@H](F)[C@H](C2)OC(=O)N1 [Compound 224, (1^1R,1^3S,1^4R,9S,Z)-1^4-fluoro-9-methyl-2^1H-5,12-dioxa-3,10-diaza-4(4,2)-pyridina-2(3,5)-pyrazola-1(1,3)-cyclopentanacyclododecaphan-11-one]	> 1.25 µM	–
0.002 to 0.01 µM	0.01 to 0.05 µM	≤ 0.01 µM	E (E, <20)	≤ 0.01 µM	0.01 to 0.05 µM	E (E, <20)	0.01 to 0.05 µM	E (E, <20)	0.01 to 0.05 µM	E (E, <20)	C[C@H]1CCCOc2cc(ccn2)Nc2cc(n[nH]2)[C@@H]2C[C@H](F)[C@@H](C2)OC(=O)N1 [Compound 225, (1^1S,1^3R,1^4S,9S,Z)-1^4-fluoro-9-methyl-2^1H-5,12-dioxa-3,10-diaza-4(4,2)-pyridina-2(3,5)-pyrazola-1(1,3)-cyclopentanacyclododecaphan-11-one]	0.25 to 1.25 µM	–
0.01 to 0.05 µM	0.05 to 0.25 µM	–	–	–	–	–	–	–	–	–	C[C@H]1CC(F)(F)COc2cc(ccn2)Nc2[nH]nc(c2F)[C@H]2CC[C@H](C2)OC(=O)N1 [Compound 244, (1^1S,1^3R,9S,E)-2^4,7,7-trifluoro-9-methyl-2^1H-5,12-dioxa-3,10-diaza-4(4,2)-pyridina-2(3,5)-pyrazola-1(1,3)-cyclopentanacyclododecaphan-11-one]	> 1.25 µM	IC50 [1, 11]: 0.1 to 0.5 µM; CDK2 Fold selectivity against CDK1 ([1]; Table 38): D (D, >20 and ≤50); IC50 [2, 11]: ≤ 0.01 µM; IC50 [3, 11]: > 0.5 µM; CDK2 Fold selectivity against CDK4 ([3]; Table 38): B (B, >100 and ≤500); IC50 [4, 11]: > 0.5 µM; CDK2 Fold selectivity against CDK6 ([4]; Table 38): B (B, >100 and ≤500); IC50 ([5]; Table 37, recombinant CDK kinase, read-out: CDK9-CYCLINT1, IC50): > 0.5 µM; CDK2 Fold selectivity against CDK9 ([5]; Table 38): A (A, ≥500)
0.002 to 0.01 µM	0.01 to 0.05 µM	–	–	–	–	–	–	–	–	–	C[C@H]1CCCNC(=O)O[C@@H]2CC[C@@H](C2)c2cc([nH]n2)Nc2ccnc(c2)O1 [compound 12]	0.25 to 1.25 µM	IC50 ([1]; ADP-Glo, 1000 μM ATP, Table 11): 0.01 to 0.05 µM; IC50 ([2]; ADP-Glo, 1000 μM ATP, Table 11): ≤ 0.01 µM; IC50 ([3]; ADP-Glo, 1000 μM ATP, Table 11): 0.1 to 0.5 µM; IC50 ([4]; ADP-Glo, 1000 μM ATP, Table 11): 0.1 to 0.5 µM; IC50 ([5]; ADP-Glo, 1000 μM ATP, Table 11, read-out: CDK9-CYCLINT1, IC50): 0.1 to 0.5 µM
